Measurements reported in patent publication US10450421B2, “Synthesis of multiarm poly[(R)-3-hydroxybutyrate] and its derivatives” (AGENCY FOR SCIENCE, TECHNOLOGY AND RESEARCH, priority 2015, dated 2019).
Ends that are not written are not given here.

Assays:
[1] = test system: S. aureus; assay: Antimicrobial test, MIC against S. aureus; format: cell-based; details: Gram-positive bacteria S. aureus (n = 2)
Method: (§1) The solutions based on the Q-PHB-PDMAEMA were tested for efficacy in killing clinically significant pathogens: the […] and Gram-negative bacteria (E. coli).

[2] = test system: E. coli; assay: Antimicrobial test, MIC against E. coli; format: cell-based; details: Gram-negative bacteria E. coli (n = 2)
Method: as §1

## GIGKFLHSAGKFGKAFVGEIMKS [Magainin I]
[1]
  MIC: 130 µg/mL
[2]
  MIC: 130 µg/mL
